Results on 1 sequence are retold here after patent publication US8637439B2, “Bathing gel with improved environmental profile” (Coty Inc., priority 2009, dated 2014).

The subject of data set [1] is aquatic trophic levels (fish, crustaceous, algae). As to the kind of experiment: Chronic aquatic toxicity (aquatic trophic levels). The data set is classed as in vivo. From the text: (§1) A comparison of the relative aquatic toxicity profile of the long-chain alkyl hydroxyalkyl cellulose derivative compared to anionic alketh surfactant is shown in Table 3.
(§2) The terms used are defined as follows: • LC50 or EC50: Lethal or effect concentration 50=Concentration in water having 50% chance of causing adverse effects or death to aquatic life) • SFacute: Safety Factor, determined according the number of trophic levels (fish, crustaceous, algae) studied (the largest, the best) • TFacute: L(E)C50/SFacute • NOEC: No observed effect concentration=The highest concentration for which the difference from the control group is not statistically significant in a long term study • SFchronic: Safety Factor, determined according the number of trophic levels (fish, crustaceous, algae) studied • TFchronic: NOEC/SFchronic

Data set [2] has the same test system. As to the kind of experiment: Acute aquatic toxicity (aquatic trophic levels). The data set is classed as in vivo. Particulars: L(E)C50/SFacute.
Description: as §1, §2

On to C 12/15 A 1-3 EO sulfate, for which the TFchronic in data set [1] (NOEC/SFchronic) is on record as 0.01. Moreover, in data set [1] (chronic toxicity, long term study), the NOEC came to 0.1. In data set [2], this sequence displayed a TFacute of 0.0041.
